Experimental data published in patent US11197859B2 (AUTIFONY THERAPEUTICS LIMITED, priority 2010, dated 2021).

How the values were obtained:
[1] = tested on: MNTB neurons; assay: High-voltage activated potassium currents in MNTB neurons, in vitro; assay type: cell-based, mouse; conditions: 10 microM in continuing presence of TEA (1 mM); effect on the TEA-induced reduction
Description: Male CBA/Ca mice (aged 12-16 days) were used in these experiments (in accordance with the UK Animals Scientific Procedures Act, 1986). Brain slices containing the medial nucleus of the trapezoid body (MNTB) were prepared as described previously (Brew and Forsythe, 2005).
Chemicals and reagents were purchased from Sigma, (Poole, UK) unless otherwise noted. Reference Example RE1 was dissolved in DMSO and diluted in ACSF to the required concentration.
Recordings from identified MNTB neurons were conducted as previously described (Brew and Forsythe, 2005). Slices was placed in a superfusion chamber on an inverted microscope stage and continuously perfused with gassed (95% O2-5% CO2) ACSF at a rate of 1 ml min-1 at room temperature. Whole-cell recordings were made from visually identified MNTB neurons using an […] amplifier (Molecular Devices, Union City, Calif., USA). Patch solution comprised (in mM) potassium gluconate (97.5), KCl (32.5), Hepes (40), EGTA (5), MgCl2 (1), Na2phosphocreatin (5), pH 7.2 with KOH. Pipettes had resistances of 3-5 MΩ and series resistances were 6-10 MΩ (compensated by 70%, 10 μs lag). Access resistance was frequently monitored and the recording discarded if increases were more than 2 MΩ. […]

[2] = tested on: Male CD rats; assay: Electroshock seizure model in rats; assay type: in vivo, rat; conditions: 2 hours before test
Description: Male CD rats (85-130 g) were supplied by Charles River, Italy.
Testing involved determining the threshold for tonic hindlimb extensor seizures using a Hugo Sachs Electronik stimulator which delivers a constant current of 0.3 second duration, 50 Hz, sinewave form, fully adjustable between 1 and 300 mA. Stimuli were delivered via corneal electrodes (Stean T O, Atkins A R, Heidbreder C A, Quinn L P, Trail B K, Upton N. (2005) Br J Pharmacol. 144(5):628-35). Seizure threshold was determined using the ‘up and down’ method of Kimball et al. (1957)(Kimball A W, Burnett W T Jr, Doherty D G. (1957) Radiat Res. 7(1):1-12). The first animal tested in each group was stimulated with a current that might be expected to be close to the threshold for induction of a seizure. If a tonic seizure was not induced, then the next animal in the group received a stimulus 5 mA higher. If a tonic seizure was induced, then the next animal received a stimulus 5 mA lower. This is repeated for all animals within the control (vehicle) group. In the case of groups treated with a test compound steps of 5 to 10 mA were used. At the end of the study, blood samples were taken for analysis of the drug concentrations in this compartment (n=4/group).
All doses were calculated as base. Sodium valproate was suspended in Methocell 1% (w/v) and dosed via the oral (p.o.) route at 5 mL/kg 1 hour before test. Reference Example RE1 was dissolved in DMSO and then suspended in Methocell 1% (w/v) to a final DMSO concentration of 5% (v/v). Reference Example RE1 was then dosed p.o. at 5 mL/kg 2 hours before test.
Induction of seizure is measured as an all-or-nothing effect scored as either present (+) or absent (0) for each animal. […] Drug effects were calculated as the % change in CC50. Significant differences between drug-treated animals and appropriate vehicle treated groups were assessed according to the methods of Litchfield and Wilcoxon (1949).

[3] = tested on: Male CD-1 mice; assay: Psychostimulant (amphetamine)-induced hyperactivity in mice; conditions: AMPH 2 mg/kg i.p. + compound 10 mg/kg p.o. 30 min before; over 60 min; mean ± sem
[4] = tested on: parvalbumin-positive interneurons in the somatosensory cortex; assay: Firing of parvalbumin-positive interneurons in somatosensory cortex slices, in vitro; assay type: cell-based, mouse; conditions: for frequency of action potential firing in response to step currents: vs TEA alone, p<0.05

## CC[C@H]1NC(=O)N(c2ccc(Oc3ccc(C)c(OC)c3)nc2)C1=O [RE1, (5R)-5-ethyl-3-(6-{[4-methyl-3-(methyloxy)phenyl]oxy}-3-pyridinyl)-2,4-imidazolidinedione]
[1]
  amplitude of outward high voltage-activated potassium currents evoked by voltage steps to +40 mV: reversed
[2]; 30 mg/kg p.o.
  increase in seizure threshold (% change in CC50): 91%
[2]; 60 mg/kg p.o.
  increase in seizure threshold (% change in CC50): 218%
[3]
  Total Distance Travelled (cm): 15267 ± 3166 cm
[4]; TEA (0.5 mM) + compound 1 μM vs TEA (0.5 mM) only, p<0.05, n=9
  decrease of mean action potential half-width: 24%
[4]; TEA (0.5 mM) + compound 1 μM, n=9
  frequency of action potential firing in response to step currents: significantly reversed
[4]; TEA (0.5 mM) + compound 10 μM vs TEA (0.5 mM) only, p<0.01, n=5
  decrease of mean action potential half-width: 36%
[4]; TEA (0.5 mM) + compound 10 μM, n=5
  frequency of action potential firing in response to step currents: significantly reversed
